pIC50: −log10 of the molar value. In brackets after ≈: the same amount, converted by molar mass.
Experiments:
[1] = tested on: M. tuberculosis susceptible strain 14241; assay: MIC by microplate alamarBlue assay (MABA); type: cell-based, Mycobacterium tuberculosis; conditions: Mycobacterium tuberculosis
[2] = tested on: M. tuberculosis susceptible strain 14242; assay: MIC by microplate alamarBlue assay (MABA); type: cell-based, Mycobacterium tuberculosis; conditions: Mycobacterium tuberculosis
[3] = tested on: M. tuberculosis susceptible strain 14280; assay: MIC by microplate alamarBlue assay (MABA); type: cell-based, Mycobacterium tuberculosis; conditions: Mycobacterium tuberculosis
[4] = tested on: M. tuberculosis susceptible strain 14286; assay: MIC by microplate alamarBlue assay (MABA); type: cell-based, Mycobacterium tuberculosis; conditions: Mycobacterium tuberculosis
[5] = tested on: M. tuberculosis susceptible strain 14480; assay: MIC by microplate alamarBlue assay (MABA); type: cell-based, Mycobacterium tuberculosis; conditions: Mycobacterium tuberculosis
M. tuberculosis H37Rv [6] = assay: MIC by microplate alamarBlue assay (MABA); type: cell-based, Mycobacterium tuberculosis; conditions: Mycobacterium tuberculosis, H37RV
[7] = tested on: M. tuberculosis H37Rv and two clinical isolates (14619, 14242); assay: Time-kill curve analysis; type: cell-based, Mycobacterium tuberculosis; conditions: up to 14 days culture
[8] = Pharmacokinetic study in mice; type: in vivo, BALB/c mice; conditions: for half-life: plasma; for half-life / At 96 h lung/plasma: lung / At 96 h lung/plasma: plasma: Mice; for At 96 h lung/plasma: lung: lung exposure at 96 h (first number of the pair); for At 96 h lung/plasma: plasma: plasma exposure at 96 h (second number of the pair)
Procedure: (§1) The BALB/c mice, rats, and beagle dogs were used in the PK study and fasted overnight before dosing. Animal doses were administered in two ways. […] Plasma samples were collected from three animals at each time point. Plasma concentrations were determined by liquid chromatography-tandem mass spectrometry (LC-MS/MS). The bioanalytical method by LC-MS/MS for pharmacokinetic (PK) studies in animal and toxicokinetic (TK) in tox studies have been validated. The total area under the concentration-time curve (AUC0-inf), the elimination half-time (t1/2), the peak concentration (Cmax), and the time to reach peak concentration (Tmax) of samples were determined directly from the experimental data using WinNonlin V6.2.1.

[9] = Pharmacokinetic study in rats; type: in vivo, rat; conditions: for At 96 h lung/plasma: lung / At 96 h lung/plasma: plasma / half-life: Rat; for At 96 h lung/plasma: lung: lung exposure at 96 h (first number of the pair); for At 96 h lung/plasma: plasma: plasma exposure at 96 h (second number of the pair); for half-life: plasma
Procedure: as §1

[10] = Pharmacokinetic study in beagle dogs; type: in vivo; conditions: dog; for AUC(0-inf): AUC0-inf; for half-life: plasma
Procedure: The BALB/c mice, rats, and beagle dogs were used in the PK study and fasted overnight before dosing. Animal doses were administered in two ways. One is oral administration, configured to form a 6.25 mg/kg WX-081, with 0.5% carboxymethylcellulose (CMC), the other is the WX-081 with an intravenous injection of 1.0 mg/kg (formulated in 40% hydroxypropyl-β-cyclodextrin and 50 mM citrate buffer at pH 3). Plasma samples were collected from three animals at each time point. Plasma concentrations were determined by liquid chromatography-tandem mass spectrometry (LC-MS/MS). The bioanalytical method by LC-MS/MS for pharmacokinetic (PK) studies in animal and toxicokinetic (TK) in tox studies have been validated. The total area under the concentration-time curve (AUC0-inf), the elimination half-time (t1/2), the peak concentration (Cmax), and the time to reach peak concentration (Tmax) of samples were determined directly from the experimental data using WinNonlin V6.2.1.

[11] = Preliminary in vivo toxicity study in mice
Procedure: Before the in vivo activity test, a preliminary in vivo toxicity study was conducted. All mice tolerated WX-081 at the administered doses. No adverse events were found.

M. tuberculosis H37Rv [12] = type: in vivo, BALB/c mice; conditions: acute model
M. tuberculosis H37Rv [13] = type: in vivo, BALB/c mice
[14] = 14-day repeated oral dose toxicity and toxicokinetic head-to-head study in beagle dogs; type: in vivo, beagle dog
[15] = target: T1, human ether-á-go-go-related (hERG) ion channel (Homo sapiens, UniProt Q12809); assay: hERG manual patch-clamp assay in hERG-CHO cell; type: cell-based; conditions: parent compound
T1 construct: expressed in transfected cells; host or cells: hERG-CHO cell (CHO cells expressing hERG)
T1 sequence (Q12809 whole entry): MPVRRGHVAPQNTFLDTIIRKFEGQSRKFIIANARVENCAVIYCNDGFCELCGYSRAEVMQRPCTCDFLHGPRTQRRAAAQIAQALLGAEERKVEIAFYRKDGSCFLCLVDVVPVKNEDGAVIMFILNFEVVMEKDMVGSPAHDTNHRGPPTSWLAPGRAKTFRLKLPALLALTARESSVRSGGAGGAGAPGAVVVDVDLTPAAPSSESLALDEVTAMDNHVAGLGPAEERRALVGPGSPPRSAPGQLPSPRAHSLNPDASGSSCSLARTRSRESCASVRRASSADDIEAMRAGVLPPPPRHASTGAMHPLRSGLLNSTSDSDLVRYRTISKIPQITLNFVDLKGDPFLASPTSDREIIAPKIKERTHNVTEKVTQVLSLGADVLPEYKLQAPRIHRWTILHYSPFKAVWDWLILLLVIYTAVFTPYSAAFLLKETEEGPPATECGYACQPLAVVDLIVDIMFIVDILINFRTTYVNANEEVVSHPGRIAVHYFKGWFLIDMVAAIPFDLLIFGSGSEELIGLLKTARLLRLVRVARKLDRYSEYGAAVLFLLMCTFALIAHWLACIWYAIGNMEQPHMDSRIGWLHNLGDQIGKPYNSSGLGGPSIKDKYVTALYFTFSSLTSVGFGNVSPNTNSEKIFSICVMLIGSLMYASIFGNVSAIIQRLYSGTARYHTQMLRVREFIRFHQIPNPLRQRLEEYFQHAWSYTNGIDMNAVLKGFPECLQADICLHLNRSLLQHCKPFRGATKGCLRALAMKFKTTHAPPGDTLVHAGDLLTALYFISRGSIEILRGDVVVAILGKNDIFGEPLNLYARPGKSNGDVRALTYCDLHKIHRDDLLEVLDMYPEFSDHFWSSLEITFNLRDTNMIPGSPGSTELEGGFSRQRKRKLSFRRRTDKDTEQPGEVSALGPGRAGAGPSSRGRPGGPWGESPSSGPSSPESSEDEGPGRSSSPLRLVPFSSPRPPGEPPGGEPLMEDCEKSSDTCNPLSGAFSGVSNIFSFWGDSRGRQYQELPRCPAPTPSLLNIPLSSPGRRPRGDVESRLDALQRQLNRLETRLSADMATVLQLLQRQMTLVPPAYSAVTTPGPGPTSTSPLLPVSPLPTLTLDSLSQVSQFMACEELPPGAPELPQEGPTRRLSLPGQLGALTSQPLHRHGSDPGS
Procedure: A human ether-á-go-go-related (hERG) ion channel in vitro assay was performed in Shanghai Institute of Materia Medica, Shanghai, for the evaluation of cardiac liability testing. The assay was a manual patch-clamp method using electrophysiology in an hERG-CHO cell.

[16] = tested on: M. tuberculosis susceptible strain 14242; assay: MBC determination (CFU-based); conditions: 7 days incubation, 3 log10 CFU decrease
M. tuberculosis H37Rv [17] = assay: MBC determination (CFU-based); conditions: 7 days incubation, 3 log10 CFU decrease
[18] = BALB/c, mouse, in vivo, iv, 1 mg/kg
[19] = BALB/c, mouse, in vivo, po, 6.25 mg/kg
[20] = beagle dogs, 200 mg/kg oral, 14 days

COc1ncc(-c2ccc(Cl)cc2)cc1[C@@H](c1ccccc1)[C@@](O)(CCN(C)C)c1cccc2ccccc12 [WX-081, sudapyridine]
MIC [1]: 0.117 µg/mL (≈ 0.218 µM) | MIC [2]: 0.219 µg/mL (≈ 0.408 µM) | MIC [3]: 0.124 µg/mL (≈ 0.231 µM) | MIC [4]: 0.152 µg/mL (≈ 0.283 µM) | MIC [5]: 0.12 µg/mL (≈ 0.223 µM) | MIC (M. tuberculosis H37Rv [6]): 0.07 µg/mL (≈ 0.13 µM) | concentration showing bactericidal effects in time-kill test [7]: ≥ 4 × MIC | AUC(0-inf) [8, 18]: 4800 ng·h/mL | AUC(0-t) [8, 18]: 3990 ng·h/mL | Vd [8, 18]: 10.4 L/kg | clearance [8, 18]: 3.59 mL/min/kg | AUC(0-inf) [8, 19]: 11900 ng·h/mL | AUC(0-t) [8, 19]: 10200 ng·h/mL | Cmax [8, 19]: 503 ng/mL | Tmax [8, 19]: 7.33 h | bioavailability [8, 19]: 40.7% | half-life ([8]; BALB/c, mouse, Iv. 1.0 mg/kg): 46.3 h | half-life ([8]; BALB/c, mouse, Po. 6.25 mg/kg): 43.9 h | At 96 h lung/plasma: lung ([8]; Iv. 1.0 mg/kg): 241 | At 96 h lung/plasma: plasma ([8]; Iv. 1.0 mg/kg): 12.4 | At 96 h lung/plasma: lung ([8]; Po. 6.25 mg/kg): 857 | At 96 h lung/plasma: plasma ([8]; Po. 6.25 mg/kg): 25.3 | At 96 h lung/plasma: lung ([9]; Iv. 1.0 mg/kg): 235 | At 96 h lung/plasma: plasma ([9]; Iv. 1.0 mg/kg): 3.61 | At 96 h lung/plasma: lung ([9]; Po. 5.0 mg/kg): 337 | At 96 h lung/plasma: plasma ([9]; Po. 5.0 mg/kg): 4.74 | half-life ([9]; Iv. 1.0 mg/kg): 25.6 h | half-life ([9]; Po. 5.0 mg/kg): 29.8 h | AUC(0-inf) ([9]; rat, in vivo, iv, 1 mg/kg): 2350 ng·h/mL | AUC(0-t) ([9]; rat, in vivo, iv, 1 mg/kg): 2220 ng·h/mL | Vd ([9]; rat, in vivo, iv, 1 mg/kg): 9.2 L/kg | clearance ([9]; rat, in vivo, iv, 1 mg/kg): 8.25 mL/min/kg | AUC(0-inf) ([9]; rat, in vivo, po, 5 mg/kg): 4310 ng·h/mL | AUC(0-t) ([9]; rat, in vivo, po, 5 mg/kg): 4080 ng·h/mL | Cmax ([9]; rat, in vivo, po, 5 mg/kg): 328 ng/mL | Tmax ([9]; rat, in vivo, po, 5 mg/kg): 1 h | bioavailability ([9]; rat, in vivo, po, 5 mg/kg): 36.7% | AUC(0-t) ([10]; in vivo, iv, 0.5 mg/kg): 3610 ng·h/mL | Vd ([10]; in vivo, iv, 0.5 mg/kg): 6.04 L/kg | clearance ([10]; in vivo, iv, 0.5 mg/kg): 2.04 mL/min/kg | AUC(0-inf) ([10]; in vivo, iv, 0.5 mg/kg): 4250 ng·h/mL | AUC(0-t) ([10]; in vivo, po, 2 mg/kg): 8500 ng·h/mL | bioavailability ([10]; in vivo, po, 2 mg/kg): 58.9% | AUC(0-inf) ([10]; in vivo, po, 2 mg/kg): 9490 ng·h/mL | Cmax ([10]; in vivo, po, 2 mg/kg): 390 ng/mL | Tmax ([10]; in vivo, po, 2 mg/kg, Tmax): 4.67 h | AUC(0-t) ([10]; in vivo, po, 6 mg/kg): 20200 ng·h/mL | bioavailability ([10]; in vivo, po, 6 mg/kg): 46.6% | AUC(0-inf) ([10]; in vivo, po, 6 mg/kg): 22800 ng·h/mL | Cmax ([10]; in vivo, po, 6 mg/kg): 1080 ng/mL | Tmax ([10]; in vivo, po, 6 mg/kg, Tmax): 5.33 h | AUC(0-t) ([10]; in vivo, po, 20 mg/kg): 50400 ng·h/mL | bioavailability ([10]; in vivo, po, 20 mg/kg): 34.9% | Tmax ([10]; in vivo, po, 20 mg/kg, Tmax): 7.67 h | Tmax ([10]; in vivo, po, 20 mg/kg, time to peak concentration (Tmax)): 4.6 to 7.7 h | half-life ([10]; iv, 0.5 mg/kg, Dog, Iv. 0.5 mg/kg, read-out: t1/2 (converted)): 56.2 h | half-life ([10]; po, 2 mg/kg, Dog, Po. 2.0 mg/kg, read-out: t1/2 (converted)): 51.1 h | half-life ([10]; po, 6 mg/kg, Dog, Po. 6.0 mg/kg, read-out: t1/2 (converted)): 55.6 h | half-life ([10]; po, 20 mg/kg, Dog, Po. 20.0 mg/kg, read-out: t1/2 (converted)): 57.6 h | half-life ([10]; po, 20 mg/kg, beagle dogs, oral, range over doses of 2, 6, or 20 mg/kg, read-out: plasma half-life (t1/2)): 51 to 58 h | LD50 ([11]; mouse, in vivo, read-out: LD50 (dose that caused at least 50% of mice to die)): > 3000 mg/kg | tolerability at the administered doses ([11]; no adverse events were found): tolerated | reduction in CFU compared with BDQ at 10 mg/kg (M. tuberculosis H37Rv [12]; 10 mg/kg, P < 0.05): larger reduction in CFU than BDQ | activity compared with BDQ at the equivalent dose (M. tuberculosis H37Rv [12]; 20 mg/kg): no difference from that of BDQ | culturable organisms in mouse lungs (M. tuberculosis H37Rv [12]; daily 20 mg/kg monotherapy, 20 days): all culturable organisms’ clearance | reduction of CFU in the lungs compared with 15 mg/kg RFP (M. tuberculosis H37Rv [13]; chronic model, 5 mg/kg, 8-week treatment): superior | activity compared with BDQ (M. tuberculosis H37Rv [13]; chronic model, 5, 10, and 20 mg/kg orally, 8 weeks): slightly lower than BDQ, there was no significant difference in activity | lung CFU after 8 weeks of treatment (M. tuberculosis H37Rv [13]; chronic model, any dose (5, 10, 20 mg/kg)): declined | mortality and moribundity ([14]; 200 mg/kg oral once daily, 14 days, male and female dogs): did not result in mortality and moribundity | ECG: HR [14, 20]: Slowing of the heart rate | ECG: QT interval [14, 20]: Physiologically appropriate lengthening of the QT interval | ECG: RR/PR interval [14, 20]: Lengthening of the RR interval | qualitative ECG changes associated with oral administration [14, 20]: no qualitative ECG changes | effects on blood pressure, heart rate, or qualitative ECG parameters ([14]; dog, in vivo): no adverse effects | cTnI ([14]; dog, in vivo, po, 200 mg/kg): no significant changes | pIC50 [15]: < 4.52 | MBCs [16]: 0.313 µg/mL | MBCs (M. tuberculosis H37Rv [17]): 2.500 µg/mL
